Test results taken from ChEMBL document CHEMBL1148979, “Thiobutacin, a novel antifungal and antioomycete antibiotic from Lechevalieria aerocolonigenes” (2004).
≈ marks a conversion by molar mass, not a printed value.

Assays:
Type in all cases: functional
Phytophthora capsici = assay: Antioomycete activity against Phytophthora capsici by microtiter broth dilution assay
Botrytis cinerea = assay: Antifungal activity against Botrytis cinerea
Saccharomyces cerevisiae = assay: Antimicrobial activity against Saccharomyces cerevisiae

Molecule	MIC (Phytophthora capsici) [µg/mL]	MIC (Botrytis cinerea) [µg/mL]	MIC (Saccharomyces cerevisiae) [µg/mL]
CSC(CC(=O)c1ccccc1N)C(=O)O (stereo not drawn) [THIOBUTACIN]	10 (≈ 41.8 µM)	50 (≈ 209 µM)	30 (≈ 125 µM)
COCC(=O)N(c1c(C)cccc1C)C(C)C(=O)OC (stereo not drawn) [METALAXYL]	30 (≈ 107 µM)		
Clc1ccc(COC(Cn2ccnc2)c2ccc(Cl)cc2Cl)c(Cl)c1 (stereo not drawn) [MICONAZOLE]		10 (≈ 24 µM)	5 (≈ 12 µM)
NYSTATIN		3	7
